Usually melting point stands for the temperature, or range, at which the solid turns liquid. In turn, `Cc1n[nH]c(C)c1-c1cccc(OC2SCC(O)C(O)C2O)c1` (stereo not given) gave a melting point of 213 °C.
With `Cc1ccc(-c2nccc3c(CC#N)cccc23)cc1`, the melting point was 102 °C.
The figure for `O=C(NCc1ccc(Cl)cc1)c1cn2c(CCO)cc3cc(CC4CCOCC4)cc(c1=O)c32` is 204 to 206 °C; for `O=[N+]([O-])c1cc(OCCCl)ccc1Cl` it is 46 to 48 °C.
The molecule `CCOC(=O)COc1ccc(CCC(=O)OC)cc1[N+](=O)[O-]` registered a melting point of 70 to 72 °C.
With `NC(C(=O)O)c1ccc(C(=O)O)cc1SCCc1ccccc1` (stereo not given), the melting point lay in the range of 227 to 231 °C.
With `N#Cc1ccc(C2CC(=O)c3ccccc3N2)cc1` (stereo not given) the figure was 206 to 208 °C; with `c1ccc2c(c1)c(-c1cc3nccnc3[nH]1)cn2CCCN1CCCCC1`, 240 °C; with `CC(C)(C)c1ccc(-c2cc(C=O)cc3c2C(C)(C)CCC3(C)C)cc1`, 129 °C.
`N=C(NO)c1nc(-c2ccc(Cl)cc2)cc(C(F)(F)F)n1`: the melting point worked out at 243 °C.
`CC(Oc1ccc(F)cc1F)c1ccnc2ncnn12` (stereo not given) returned a melting point of 96 to 97 °C.
With `CCc1c(CCN2CCC(c3noc4cc(F)ccc34)CC2)sc2c1NC(=O)CCC2` the figure was 115 to 117 °C; with `CN1CCC(c2ccccc2)(c2ccccc2)CC1`, 71 to 73 °C.
As for `O=C(O)c1ccc(COCc2csc3nc(C(=O)NCc4ccnc(OCCCc5nc[nH]n5)c4)[nH]c(=O)c23)cc1`, the melting point fell in the range of 206 to 209 °C.
On to `CCSC(=O)n1c(=NC(=O)N(C)C)sc2ccccc21`, for which the melting point was 138 °C.
Consider `CCOc1ccc(C(=O)Nc2ccccc2)cc1[N+](=O)[O-]`, for which the melting point fell in the range of 189 to 190 °C.
`CON=CC1=CCCN(C(=O)OCC(N)=O)C1` came in with a melting point of 131 to 133 °C.
Molecule `CS(=O)(=O)c1ccc(-c2sc(Br)cc2-c2ccc(F)cc2)cc1` returned a melting point of 141 to 145 °C.
On to `CCc1nn2c(-c3ccc(Cl)cc3Cl)cccc2c1N(CC)CC`, for which the melting point lay in the range of 118 to 121 °C.
With `Cn1cc(C(=O)NCCCN)c(Nc2ccc(I)cc2F)cc1=O`, the melting point was in the range of 201 to 206 °C.
The figure for `CN(C)c1ccc(F)c(C#N)c1` is 72 to 72.5 °C; for `COc1cc(N)ccc1NNC=O` it is 113 to 116 °C; for `Cc1ccnc2c(Oc3ccccc3N)cccc12` it is 160 to 161 °C.
Regarding `CN1CCP(=O)(c2ccccc2)CC1`, the melting point lay in the range of 115 to 116 °C.
Turning to `COC(=O)[C@H](Cc1ccc(OCCN2CCCCCC2)cc1)NC(=O)[C@@H]1CCCN1S(=O)(=O)c1ccc(C)cc1`, the melting point fell in the range of 60 to 65 °C.
For `O=C(NCCO)c1cccc(-c2cccn3cc(Cc4cccc(C(F)(F)F)c4)nc23)c1`, the melting point lay within 136 to 137 °C.
With `O=C(O)CNC(=O)NC(=O)C(CC1CCCC1)c1ccc(Cl)c(Cl)c1` (stereo not given) the figure was 204 to 207 °C.
The figure for `O=S1(=O)c2cccc3cccc(c23)N1CCCN1CCN(c2ccccc2F)CC1` is 112 °C; for `CNC(=O)c1cc(NCc2c(C)cccc2C)c2nc(C)n(C)c2c1` it is 252 to 253 °C.
The molecule `Cc1cc2oc(=O)c(NC(=O)Nc3ccc(Cl)cc3)c(-c3ccccc3C)c2cc1C` came in with a melting point of 234 to 236 °C.
The molecule `Cc1nc(NC(=O)Nc2ccc(N3CCN(C(=O)Nc4ccc(OCCO)cc4Cl)CC3)nc2)sc1C` displayed a melting point of 184 to 185 °C.
The figure for `CC#CCOc1ccc(S(=O)(=O)C(C(=O)OCC)C2CCN(C(=O)c3ccccc3)CC2)cc1` (stereo not given) is 120 °C; for `CCS(=O)CC(O)(C(=O)Nc1ccc(C#N)c(C(F)(F)F)c1)C(F)(F)F` (stereo not given) it is 141 to 143 °C; for `O=C(O)Cc1c(-c2ccccc2)c2cc(Cl)c(Cl)cc2oc1=O` it is 222 to 223 °C.
Molecule `COCOc1cc(F)ccc1-c1cc(-c2cccc(Br)c2)c(C#N)c(N)n1` showed a melting point of 165 to 166 °C.
The molecule `N#Cc1cccc(CCc2nnc(-c3ccc4nccn4c3)o2)c1` had a melting point of 168 to 169 °C.
In the case of `CC(C)(C)OC(=O)[C@@H](C(N)c1ccccc1)[C@@H](O)C[C@@H](Cc1ccccc1)c1ncc2n1C(O)C(C)(C)C2=O` (stereo not given in full), the melting point is 88 to 90 °C.
Turning to `O=C(c1cccnc1Cl)N(O)C1CCCCC1`, the melting point is 151 to 153 °C.
With `CC=CC1OC(=O)c2ccc(N)cc21` (stereo not given) the figure was 125 to 130 °C; with `Cc1ncc(CO)c(C2NC(C(=O)O)C(C)(C)S2)c1O` (stereo not given), 201 to 202 °C.
For the molecule `CCOC(=O)N1CC[C@H](NC(=O)c2cc([N+](=O)[O-])c(Cl)cc2OC)[C@H](OC)C1` (relative stereo), the melting point stood at 181 °C.
With `CCOc1c(C(=O)O)cnc2c1cnn2CC` the figure was 198 to 199 °C; with `CCCCN(C(=O)c1ccccc1)C1CC(C)(C)N(OC(=O)c2ccccc2)C(C)(C)C1`, 155 to 159 °C.
On to `CC(C)(C)OC(=O)NNC1C2CC3CC(C2)CC1C3` (stereo not given), for which the melting point lay in the range of 90 to 92 °C.
In turn, `COc1ccc(Cn2c(=O)c3ccc([N+](=O)[O-])cc3n(CCCCBr)c2=O)cc1` returned a melting point of 122 to 123 °C.
Consider `Cc1oc2c(-n3c(=O)cc(C(F)(F)F)n(C)c3=O)ccc(Cl)c2c1C`, for which the melting point was 152 to 153 °C.
Regarding `COC(=O)c1cc(C(=O)NCCN(C)C)c2cc(Cc3ccc(F)cc3)cnc2c1O`, the melting point fell in the range of 115 to 116 °C.
The figure for `COc1nc(NC(=O)NS(=O)(=O)c2ccccc2C)nc(N(C)C)n1` is 194 to 198 °C.
As for `CCC(C)n1ccnc1S` (stereo not given), the melting point fell in the range of 108 to 121 °C.
The figure for `Cc1[nH]cnc1CSCCN=CNC#N` is 168 to 170 °C.
With `COC1CC(OCc2ccccc2)C(OS(=O)(=O)c2ccc(C)cc2)C(COC(c2ccccc2)(c2ccccc2)c2ccccc2)O1` (stereo not given) the figure was 94 to 97 °C; with `COc1ccc(-n2nc(C(C)(C)C)cc2NC(=O)c2nccc3cc(Oc4cc(NC(C)=O)ncn4)ccc23)cc1`, 156 °C.
The figure for `CCCCCCCCCCCCOc1ccc2c(c1)C(CCNC(=O)CCC)CC2` (stereo not given) is 68 to 69 °C; for `O=C(O)Cn1c(-c2ccc(F)cc2)nc2cccnc21` it is > 250 °C; for `Fc1ccc2c(N3CCN(Cc4ccccc4)CC3)n[nH]c2c1` it is 162 °C.
Consider `O=C1N=C(N2CCCC2)SC1=Cc1ccc(-c2cc(F)c(O)c(C34CC5CC(CC(C5)C3)C4)c2)s1`, for which the melting point fell in the range of 312 to 315 °C.
Consider `NC(=O)[C@@H]1[C@H](Nc2c(Br)cnc3[nH]c(-c4ccccc4-n4cccn4)nc23)[C@H]2C=C[C@@H]1C2`, for which the melting point turned out to be 120 °C.
For the molecule `Cc1cc([N+](=O)[O-])c(Cl)c([N+](=O)[O-])c1S(=O)(=O)Cl`, the melting point fell in the range of 105 to 107 °C.
With `O=C(O)C(c1ccccc1)N1C(=O)c2cc(Cl)c(Cl)cc2C1=O` (stereo not given), the melting point lay within 228 to 232 °C.
As for `CCOC(=O)C1=C(C)NC(C)=C(C(=O)OCC)C1c1ccccc1/C=C/C(=O)OC1CCCCCC1`, the melting point was in the range of 192 to 194 °C.
The figure for `Nc1nc2cc3nc(NC(=O)CCl)sc3cc2s1` is 300 °C; for `CCCC[C@H](CO)C(=O)NOCc1ccccc1` it is 100 to 102 °C.
For the molecule `O=C(O)c1cccnn1`, the melting point fell in the range of 156 to 158 °C.
`COc1ccc2sc(C(N)=O)c(SCCN3CCOCC3)c2c1` came in with a melting point of 158 to 160 °C.
Molecule `COc1ccc(CN2C(=O)[C@H](CO)[C@H]2S(=O)(=O)C(C)(C)C)c(OC)c1` yielded a melting point of 124 to 125 °C.
Turning to `CS(=O)(=O)c1ccc(C(=O)NCc2ccc3c(c2)C(=O)N(C2CCC(=O)NC2=O)C3=O)nc1` (stereo not given), the melting point was in the range of 276 to 278 °C.
In turn, `CC(=O)OC(c1ccccc1S(N)(=O)=O)C(C)F` (stereo not given) returned a melting point of 105 to 107 °C.
The molecule `COc1cc(N2CCC(N(C)C)C2)ccc1Nc1ncc2ccc(-c3ccccc3OC)n2n1` (stereo not given) showed a melting point of 70 to 78 °C.
Regarding `CCCCCCCCCCCCCCCCCCNC(=O)C(=O)Nc1ccc(Sc2ccc(O)cc2)cc1`, the melting point was 163 °C.
`CNC(=S)N1CCN=C1COc1cccc(C)c1C` displayed a melting point of 100 °C.
`CC(C)(C)ON=Cc1ncn2c1[C@@H]1CCCN1C(=O)c1c(Cl)cccc1-2` had a melting point of 215 to 216 °C.
In turn, `Cc1cc2c(nc1C(O)c1cccc(Cl)c1)CCCCC2` (stereo not given) displayed a melting point of 123 to 125 °C.
`COc1ccc2[nH]cc(C3CCC(=O)CC3)c2c1` showed a melting point of 103 to 106 °C.
The figure for `COc1ccc(-c2nc(CO)c[nH]2)cc1OC1CCCC1` is 188 to 190 °C; for `CC(C)[C@@H](NC(=O)OC(C)(C)C)[C@H]1CCn2c(cc3ccccc32)C1` it is 122 to 124 °C; for `O=C1CCC(CO)N1C(=O)Nc1ccccc1` (stereo not given) it is 99 to 101 °C.
Molecule `CC(=O)NC[C@H]1CN(c2ccc(-n3cccn3)c(F)c2)C(=O)O1` came in with a melting point of 183 to 184 °C.
Consider `CCCCCCCCOc1ccc(-c2ncc(O)cn2)cc1`, for which the melting point was in the range of 131 to 132 °C.
With `CNC=Nc1cnc2ccccc2c1` the figure was 142 to 143 °C; with `COc1ccc(C(=O)Nc2ccc3ccc(Nc4ccccc4)nc3n2)cc1`, 245 °C.
On to `CC1=CC(C)(N)NC=C1` (stereo not given), for which the melting point was in the range of 79.5 to 81 °C.
With `COc1ccc(S(=O)(=O)N2CCc3cccc(-c4cc(OC)c(OC)c(OC)c4)c32)cc1` the figure was 202 to 205 °C; with `Cc1ccc(CCc2cc3c(s2)-n2c(C)nnc2CN=C3c2ccccc2Cl)cc1`, 160 to 162 °C.
The molecule `Cc1cc2cnnc(OCc3ccc(F)cc3)c2n1Cc1ccccc1` returned a melting point of 127 to 132 °C.
In the case of `CNC(=O)c1c(I)c(C(=O)O)c(I)c(C(=O)NC)c1I`, the melting point is > 300 °C.
With `CCc1cnc(N2CCC(c3ccc4oc(-c5ccc(S(C)(=O)=O)cc5F)nc4c3)CC2)nc1`, the melting point was 190 to 194 °C.
Regarding `CCc1cccc(NC(=O)c2cnn(C)c2N)c1`, the melting point fell in the range of 168 to 170 °C.
Take `Cc1cc(C)cc(C(=O)N2CCC(Nc3nc4ccccc4n3Cc3cccs3)CC2Cc2ccccc2)c1` (stereo not given): the melting point was determined as 201 °C.
In turn, `CCOC(=O)NC(=S)Nc1ncc(C(F)(F)F)cc1F` registered a melting point of 99 to 100 °C.
`C=CCOc1cnc(SC)nc1` had a melting point of 41 to 42 °C.
